Results published in patent US5834487A, “Inhibition of 26S and 20S proteasome by indanones” (CV Therapeutics, priority 1996, dated 1998).

Target: T1, 20S catalytic subunit of the proteasome (multicatalytic proteinase complex) (Bos taurus, UniProt Q32KL2)
T1 construct: was purified to homogeneity from bovine brain according to published methods; from tissue; host or cells: bovine brain
Assay: 20S proteasome chymotryptic activity, fluorogenic peptide cleavage
Assay type: biochemical, bovine
Details: 50 μM succinyl-leu-leu-val-tyr-7-amino-4-methyl coumarin, 15 minutes at 37° C, pH7.5
Protocol: Compounds of this invention prepared according to the method of Example 1 were tested as follows. The 20S catalytic subunit of the proteasome (also known as the multicatalytic proteinase complex) was purified to homogeneity from bovine brain according to published methods (Wilk S. and Orlowski, M, 40 842 J. Neurochem (1983)). The chymotryptic activity of the complex is measured by the increase in fluorescence following cleavage of the substrate peptide succinyl-leucine-leucine-valine-tyrosine-7-amino-4-methyl coumarin. The standard in vitro assay consists of 2 μg 20S proteasome, 0.1-100 μg/ml proteasome inhibitor in 200 μl 50 mM HEPES, containing 0.1% sodium dodecyl sulphate, pH7.5. The proteolytic reaction is initiated by the addition of 50 μM fluorogenic peptide substrate and allowed to progress for 15 minutes at 37° C. The reaction is terminated by the addition of 100 μl of 100 mM acetate buffer, pH4.0. The rate of proteolysis is directly proportional to the amount of liberated aminomethylcoumarin which is measured by fluorescent spectroscopy (EX 370 nm, EM 430 nm).

| Compound | IC50 [µg/mL] |
| --- | --- |
| COc1ccc(NC(=O)CC2CC(=O)c3ccc(OC)cc32)cc1 (stereo not drawn) [Compound 121] | > 10 |
| COc1ccc2c(c1)C(CC(=O)NC(CC(C)C)C(=O)NC(CO)C(N)=O)CC2=O (mixture of isomers) [Compound 141] | > 10 |
| COc1ccc2c(c1)C(CC(=O)NC(CC(C)C)C(=O)NC(CC(C)C)C(=O)NC(C)C(N)=O)CC2=O (mixture of isomers) [Compound 126] | > 10 |
| COc1ccc2c(c1)C(CC(=O)N1CCc3ccccc31)CC2=O (stereo not drawn) [Compound 77] | > 10 |
| COc1ccc2c(c1)C(CC(=O)NC(CC(C)C)C(=O)NC(CC(C)C)C(=O)Nc1ccccc1)CC2=O (mixture of isomers) [Compound 184] | > 10 |
| COc1ccc2c(c1)C(CC(=O)NC(Cc1ccccc1)C(=O)NC(CC(C)C)C(N)=O)CC2=O (mixture of isomers) [Compound 27] | 10 |
| COc1ccc(CNC(=O)CC2CC(=O)c3ccc(OC)cc32)cc1 (stereo not drawn) [Compound 85] | > 10 |
| COc1ccc2c(c1)C(CC(=O)NC(CC(C)C)C(=O)NC(CC(C)C)C(=O)NC(Cc1ccccc1)C(N)=O)CC2=O (mixture of isomers) [Compound 128] | > 10 |
| CCCCC(NC(=O)CC1CC(=O)c2ccc(OC)cc21)C(=O)NC(CC(C)C)C(N)=O (mixture of isomers) [Compound 22] | > 10 |
| CCCCCCCNC(=O)CC1CC(=O)c2ccc(OC)cc21 (stereo not drawn) [Compound 70] | > 10 |
| COc1ccc2c(c1)C(CC(=O)NC(CC(C)C)C(=O)NC(Cc1c[nH]cn1)C(N)=O)CC2=O (mixture of isomers) [Compound 4] | > 10 |
| COc1ccc2c(c1)C(CC(=O)NC(CC(C)C)C(=O)NC(CC(C)C)C(=O)O)CC2=O (mixture of isomers) [Compound 172] | > 10 |
| CCCCC(NC(=O)CC1CC(=O)c2ccc(OC)cc21)C(=O)NC(CC(C)C)C(N)=O (mixture of isomers) [Compound 16] | > 10 |
| COc1ccc2c(c1)C(CC(=O)NCCc1ccc(OC)c(OC)c1)CC2=O (stereo not drawn) [Compound 72] | > 10 |
| COc1ccc2c(c1)C(CC(=O)NC(CC1CCCCC1)C(=O)NC(CC(C)C)C(=O)NCC(N)=O)CC2=O (mixture of isomers) [Compound 46] | > 10 |
| COc1ccc2c(c1)C(CC(=O)NCc1ccccn1)CC2=O (stereo not drawn) [Compound 114] | > 10 |
| COc1ccc2c(c1)C(CC(=O)NC(CC(=O)O)C(=O)NC(CC(C)C)C(N)=O)CC2=O (mixture of isomers) [Compound 94] | > 10 |
| CCC[C@@H](NC(=O)[C@H](CC(C)C)NC(=O)CC1CC(=O)c2ccc(OC)cc21)C(=O)NCC(N)=O (stereo partly drawn) [Compound 87] | > 10 |
| COc1ccc2c(c1)C(CC(=O)NC(CC(C)C)C(=O)NC(CC(=O)O)C(N)=O)CC2=O (mixture of isomers) [Compound 130] | > 10 |
| COc1ccc2c(c1)C(CC(=O)N1CCCC1)CC2=O (stereo not drawn) [Compound 64] | > 10 |
| COc1ccc2c(c1)C(CC(=O)N1CCc3ccccc31)CC2=O (racemic) [Compound 160] | > 10 |
| COc1ccc2c(c1)C(CC(=O)N(C)CCO)CC2=O (stereo not drawn) [Compound 115] | > 10 |
| COc1ccc2c(c1)C(CC(=O)NCc1ccncc1)CC2=O (stereo not drawn) [Compound 104] | > 10 |
| COc1ccc2c(c1)C(CC(=O)N1CCC(O)C1)CC2=O (stereo not drawn) [Compound 109] | > 10 |

| Compound | IC50 [µg/mL] |
| --- | --- |
| COc1ccc2c(c1)C(CC(=O)NCc1ccc3c(c1)OCO3)CC2=O (stereo not drawn) [Compound 80] | > 10 |
| COc1ccc2c(c1)C(CC(=O)NC(CC(C)C)C(=O)NC(CCCCN)C(N)=O)CC2=O (mixture of isomers) [Compound 138] | > 10 |
| COc1ccc2c(c1)C(CC(=O)NC(CC(C)C)C(=O)NC(CC(C)C)C(=O)NCCc1ccccc1)CC2=O (mixture of isomers) [Compound 185] | > 10 |
| COc1ccc2c(c1)C(CC(=O)NC(C(N)=O)c1ccccc1)CC2=O (mixture of isomers) [Compound 36] | > 10 |
| COc1ccc2c(c1)C(CC(=O)NC(CC(C)C)C(=O)NC(CC(C)C)C(=O)N1CCCC1)CC2=O (mixture of isomers) [Compound 176] | > 10 |
| COc1ccc2c(c1)C(CC(=O)NC(CC(C)C)C(=O)NC(CC(C)C)C(=O)NCC(N)=O)CC2=O (mixture of isomers) [Compound 19] | > 10 |
| COc1ccc2c(c1)C(CC(=O)N(CCO)Cc1ccccc1)CC2=O (racemic) [Compound 166] | > 50 |
| COc1ccc2c(c1)C(CC(=O)NC(CC(C)C)C(=O)NC(C)C(N)=O)CC2=O (mixture of isomers) [Compound 52] | > 10 |
| COc1ccc2c(c1)C(CC(=O)NCc1ccccc1OC)CC2=O (stereo not drawn) [Compound 107] | > 10 |
| COc1ccc2c(c1)C(CC(=O)NC(CC(C)C)C(=O)NC(CC(C)C)C(=O)NCc1ccncc1)CC2=O (mixture of isomers) [Compound 192] | 10 |
| COc1ccc2c(c1)C(CC(=O)NC(CC(C)C)C(=O)NC(CC(C)C)C(=O)N1CCCCC1)CC2=O (mixture of isomers) [Compound 175] | > 10 |
| COc1ccc2c(c1)C(CC(=O)NCCCCCCN)CC2=O (stereo not drawn) [Compound 150] | > 10 |
| COc1ccc2c(c1)C(CC(=O)NC(CC1CCCCC1)C(N)=O)CC2=O (mixture of isomers) [Compound 29] | > 10 |
| COc1ccc2c(c1)C(CC(=O)NC(CC(C)C)C(=O)NC(CC(C)C)C(N)=O)CC2=O (mixture of isomers) [Compound 6] | > 10 |
| COc1ccc2c(c1)C(CC(=O)N1C(C)CCCC1C)CC2=O (stereo not drawn) [Compound 75] | > 10 |
| COc1ccc2c(c1)C(CC(=O)NC(CC(C)C)C(=O)NC(CC(C)C)C(=O)N(Cc1ccccc1)Cc1ccccc1)CC2=O (mixture of isomers) [Compound 177] | 1 |
| CC(C)CC(NC(=O)CC1CC(=O)c2ccccc21)C(=O)NC(CC(C)C)C(=O)NCC(N)=O (mixture of isomers) [Compound 159] | > 10 |
| COc1ccc2c(c1)C(CC(=O)NCCCc1ccccc1)CC2=O (stereo not drawn) [Compound 120] | > 10 |
| COc1ccc2c(c1)C(CC(=O)NC(CC(C)C)C(=O)NC(CC(C)C)C(=O)NC13CC4CC(CC(C4)C1)C3)CC2=O (mixture of isomers) [Compound 190] | > 10 |
| COc1ccc2c(c1)C(CC(=O)N[C@@H](CC(C)C)C(=O)N[C@H](Cc1ccccc1)C(=O)NCC(N)=O)CC2=O (stereo partly drawn) [Compound 88] | > 10 |
| COc1ccc2c(c1)C(CC(=O)N1CCOCC1)CC2=O (stereo not drawn) [Compound 63] | > 10 |
| COc1ccc2c(c1)C(CC(=O)N1Cc3ccccc3CC1C(N)=O)CC2=O (mixture of isomers) [Compound 25] | > 10 |
| COc1ccc2c(c1)C(CC(=O)Nc1cccc(I)c1)CC2=O (stereo not drawn) [Compound 82] | > 10 |
| COc1ccc2c(c1)C(CC(=O)N1CCCC1CO)CC2=O (mixture of isomers) [Compound 164] | > 50 |
